Measurements as given in patent publication US11090386B2, “Method for suppressing bitterness of quinoline derivative” (Eisai R&D Management Co., Ltd., priority 2015, dated 2021).
Where a name gives a salt, the structure may show the parent alone.

What was measured:
[1] = Relative comparison of bitterness with taste perception apparatus (relative to Reference Example 7); conditions: aqueous solution of lenvatinib mesylate at a concentration of 1.225 mg/mL or more
Method: Herein, the “bitterness” of Compound 1 or the pharmaceutically acceptable salt thereof is measured by the following method. A solution of Compound 1 at a concentration of 8 mg/mL as a free form is prepared by dissolving Compound 1 or the pharmaceutically acceptable salt thereof in a 10 mM potassium chloride aqueous solution. To the thus obtained solution, an additive is added if necessary, and the resultant is stirred for 30 minutes and then centrifuged to give a liquid phase component. The bitterness of the liquid phase component is measured using a taste sensor (ACO) for measuring bitterness, and the thus obtained value is used as a bitterness index.
As a blank solution for correction, a 10 mM potassium chloride aqueous solution was subjected to the measurement. […] Relative bitterness to Reference Example 7 was calculated in accordance with the following expression, and an average of the three measurement values is shown in Table 4 and FIG. 1. It is noted that the relative bitterness was calculated using merely data obtained through a series of continuous measurements. Relative bitterness to Reference Example 7(%)=(Measured value of each sample−Measured value of 10 mM potassium chloride aqueous solution)/(Measured value of Reference Example 7—Measured value of 10 mM potassium chloride aqueous solution)×100%

[2] = Bitterness measurement with taste perception apparatus, relative bitterness to Comparative Example 1; type: physicochemical; conditions: AC0 taste sensor; lenvatinib mesylate 9.8 mg/mL (8 mg/mL free form) in 10 mM potassium chloride aqueous solution, additive added, stirred 30 minutes, supernatant; average of three measurements
Method: Herein, the “bitterness” of Compound 1 or the pharmaceutically acceptable salt thereof is measured by the following method. A solution of Compound 1 at a concentration of 8 mg/mL as a free form is prepared by dissolving Compound 1 or the pharmaceutically acceptable salt thereof in a 10 mM potassium chloride aqueous solution. To the thus obtained solution, an additive is added if necessary, and the resultant is stirred for 30 minutes and then centrifuged to give a liquid phase component. The bitterness of the liquid phase component is measured using a taste sensor (ACO) for measuring bitterness, and the thus obtained value is used as a bitterness index. […]
The measurement with the taste perception apparatus was performed four times on each sample, and three measurement results of the second to fourth measurements were used for the analysis. […] It is noted that the relative bitterness was calculated using merely data obtained through a series of continuous measurements. Relative bitterness to Comparative Example 1(%)=(Measured value of each sample−Measured value of 10 mM potassium chloride aqueous solution)/(Measured value of Comparative Example 1—Measured value of 10 mM potassium chloride aqueous solution)×100%

Q: For COc1cc2nccc(Oc3ccc(NC(=O)NC4CC4)c(Cl)c3)c2cc1C(N)=O [lenvatinib mesylate, Lenvatinib Mesylate], which “bitterness compared with a 0.1 mM quinine hydrochloride aqueous solution” value [1] is on record?
A: more bitter than a 0.1 mM quinine hydrochloride aqueous solution

Q: For COc1cc2nccc(Oc3ccc(NC(=O)NC4CC4)c(Cl)c3)c2cc1C(N)=O [Comparative Example 1, Lenvatinib Mesylate], which “Relative Bitterness to Comparative Example 1 (%)” value [2] is on record?
A: 100%
